These results are taken from paper PMC6712885, “Improved homology modeling of the human & rat EP4 prostanoid receptors” (BMC Molecular and Cell Biology, 2019).

Test [1] deals with T1, Rat EP4 Receptor (Rattus norvegicus, UniProt P43114).
T1 construct: expressed in transfected cells; host or cells: HEK293T/17
Also noted: method as in PMID 29636218. Conditions: reported within cited reference; cited from earlier work.

In test [2] the target is T2, hEP4 receptor (Homo sapiens, UniProt P35408). Also noted: expressed in transfected cells; host or cells: HEK293T/17. Conditions: reported within cited reference; cited from earlier work.
Test [3] addresses T2, hEP4 receptor. In words: cell-based. Also noted: expressed in transfected cells; host or cells: HEK293T/17. The test is classed as cell-based. The procedure:
(§1) Human and rat EP4 receptors were expressed in HEK293T/17 cells separately by reverse transfection on 96-well plates with optimized amounts of cDNA expression constructs immobilized on the surface. Activation of EP4 receptor in this cell line was measured as an increase in cAMP levels using an ELISA kit (Cayman Chemical, Ann Arbor MI). In short, the transfection plates were seeded with 50,000–80,000 cells/well in reduced serum medium containing 0.5% FBS and incubated overnight at 37 °C with 5% CO2. Before stimulation with test compounds, media was aspirated from the wells and replaced with reduced serum media containing 0.5 mM 3-isobutyl 1-methylxanthine (IBMX). Compound dilution series were prepared in the same IBMX containing media at 2X final concentration and applied to the wells in equal volume. Stimulation media were aspirated from the plates after 30 min incubation with test compounds, and the plates with cells were placed on dry ice and then put into − 80 °C freezer for > 2 h. Cell lysates were prepared on thawed plates by adding 200 μl/well ice-cold ELISA buffer with 0.05% Tween-20 followed by titration. The cell lysates were then transferred to a polypropylene plate and clarified by centrifugation at 1000×g for 15 min at 4 °C. Supernatant was transferred into a pre-coated mouse Anti-Rabbit IgG ELISA plate together with serial dilutions of cAMP for a standard curve in triplicate. cAMP-acetylcholinesterase conjugate (cAMP tracer) was added, followed by cAMP EIA antiserum. Plates were incubated overnight with shaking. After washing 5 times in washing buffer, Ellman’s reagent was added to the well and shake for 90 min under cover before measuring absorbance at 405 nm on a plate reader.

Test [4] deals with T2, hEP4 receptor. As to the kind of experiment: Radioligand ([H^3]-PGE2) competition binding, hEP4 membranes of HEK293 cells. More on the design: expressed in transfected cells; host or cells: HEK293. Conditions: Human EP4 Receptor; displacement of 0.5 nM [H^3]-PGE2, Cheng Prusoff. The procedure: (§2) Radioligand binding experiments were carried out versus the hEP4 and rEP4 receptors. […] We also implemented the rEP4 receptor binding studies. Equilibrium competition binding assays were conducted to determine the inhibition constants (Ki) for ligand interactions with EP4 receptors sourced from membranes (160,000×g) of HEK293 cells overexpressing recombinant hEP4 or rEP4 receptors. […] Assays were performed in 10 mM 2-(N-morpholino) ethanesulphonic acid (MES) buffer containing 1 mM EDTA and 10 mM MnCl2, pH 6.0, during 120 min at room temperature. Ki was calculated using the Cheng Prusoff equation where Ki = IC50/(1 […] L/Kd).

Test [5] deals with T1, Rat EP4 Receptor. In words: EP4 receptor functional activation, cAMP ELISA in transfected HEK293T/17 cells. The test is classed as cell-based. The procedure:
as §1
(ELISA stands for enzyme-linked immunosorbent assay.)

The target of the next test is T3, rEP4 receptor (Rattus norvegicus, UniProt P43114).
T3 construct: expressed in transfected cells; host or cells: HEK293
As to the kind of experiment: Radioligand ([H^3]-PGE2) competition binding, rEP4 membranes of HEK293 cells. The procedure:
as §2

Test [6] concerns the target T2, hEP4 receptor. More on the design: expressed in transfected cells; host or cells: HEK293T/17. Conditions: reported within cited reference; cited from earlier work. The source holds these as a separate data set.
The mark [7] stands for this setting: Human EP4 Receptor, cAMP response assay, value ± spread (n), read-out: EC50.
[8] abbreviates: Rat EP4 Receptor, displacement of 0.5 nM [H^3]-PGE2, Cheng Prusoff, read-out: Ki.

Values joined by “and” are separate entries in the source; they are usually repeats but may differ in a detail not shown here. Equal values may be shown once. Read-outs that look alike come from different tables or passages of the source.

T1 sequence (P43114 whole entry): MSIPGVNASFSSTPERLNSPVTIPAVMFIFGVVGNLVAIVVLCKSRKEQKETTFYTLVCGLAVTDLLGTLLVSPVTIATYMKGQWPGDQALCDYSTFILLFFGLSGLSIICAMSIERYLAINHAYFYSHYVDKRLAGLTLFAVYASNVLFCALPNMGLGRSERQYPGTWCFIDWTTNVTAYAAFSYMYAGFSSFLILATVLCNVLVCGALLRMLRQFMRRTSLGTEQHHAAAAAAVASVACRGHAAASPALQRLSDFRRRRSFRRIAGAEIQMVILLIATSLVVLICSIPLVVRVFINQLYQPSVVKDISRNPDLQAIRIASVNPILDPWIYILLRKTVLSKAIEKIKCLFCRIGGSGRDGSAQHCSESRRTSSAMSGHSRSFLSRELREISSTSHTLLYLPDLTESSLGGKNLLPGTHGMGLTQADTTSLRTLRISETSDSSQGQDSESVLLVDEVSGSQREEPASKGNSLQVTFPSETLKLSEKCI
T3 sequence (P43114 whole entry): as above
T2 sequence (P35408 whole entry): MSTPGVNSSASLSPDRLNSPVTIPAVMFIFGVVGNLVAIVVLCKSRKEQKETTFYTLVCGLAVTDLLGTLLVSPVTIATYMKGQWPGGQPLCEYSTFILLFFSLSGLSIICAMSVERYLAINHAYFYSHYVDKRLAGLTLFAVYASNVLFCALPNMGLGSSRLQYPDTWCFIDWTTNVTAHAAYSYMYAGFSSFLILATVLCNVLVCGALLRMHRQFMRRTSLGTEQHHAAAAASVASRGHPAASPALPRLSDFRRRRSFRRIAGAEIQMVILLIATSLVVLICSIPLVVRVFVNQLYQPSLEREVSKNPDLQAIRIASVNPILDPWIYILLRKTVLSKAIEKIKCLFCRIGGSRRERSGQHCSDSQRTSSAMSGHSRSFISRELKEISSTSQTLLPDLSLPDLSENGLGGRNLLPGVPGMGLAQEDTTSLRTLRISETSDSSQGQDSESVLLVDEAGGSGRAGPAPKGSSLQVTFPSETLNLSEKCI

As usually defined, the Ki is a measure of affinity in units of concentration, obtained from inhibition or displacement. For `CCCCC(C)(O)C/C=C/[C@H]1[C@H](O)CC(=O)[C@@H]1CCCCCCC(=O)OC` (mixture of isomers) [Misoprostol], the Ki on Rat EP4 Receptor [1] was 26300 nM; on hEP4 receptor [2] it was 4340 nM.
What is called EC50 is the concentration that produces a half-maximal response. In the case of `CCCCC[C@H](O)/C=C/[C@H]1CCC(=O)N1CCCCCCC(=O)O` [8-aza-11-deoxy-PGE1], the results for the EC50 at hEP4 receptor [3] (setting [7]) and at Rat EP4 Receptor [5] were 1.77 ± 0.32 nM and 2.64 ± 0.62 nM, respectively. The compound also came in with a Ki on hEP4 receptor [4] of 1.7 nM.
Consider `CCCCC[C@H](O)/C=C/[C@H]1CCC(=O)[C@@H]1CCCCCCC(=O)O` [11-deoxy-PGE1], for which the inhibition constant (Ki) on rEP4 receptor (setting [8]) amounted to 0.21 nM; at hEP4 receptor [4], 0.13 nM. For the same compound, the EC50 on hEP4 receptor [3] (setting [7]) was determined as 0.79 ± 0.19 nM; on Rat EP4 Receptor [5], 1.13 ± 0.15 nM.
For `CCCCC[C@H](O)/C=C/[C@H]1CCC(=O)[C@@H]1C/C=C\CCCC(=O)O` [11-deoxy-PGE2] the same measures were 0.42 nM, 0.23 nM, 0.66 ± 0.11 nM and 1.32 ± 0.24 nM.
For `Cc1cc(Cl)ccc1-c1ccc([C@H](O)/C=C/[C@H]2CCC(=O)N2CCCCCCC(=O)O)cc1` [CAY10684] the same measures were 0.057 nM, 0.061 nM, 0.18 ± 0.1 nM and 0.16 ± 0.06 nM.
With `CCOc1c2c(c(OCC)c3ccccc13)C(=O)N(c1ccc(CC(=O)O)cc1)C2` [CCL17464,2], on hEP4 receptor [6], the Ki was 19.9 nM.
Regarding `CCCCCCOc1c2c(c(OCCCCCC)c3ccccc13)C(=O)N(c1ccc(CC(=O)O)cc1)C2` [CCL17464,19], the Ki at hEP4 receptor [6] is more than 6310 nM.
In turn, `CCCCC[C@H](O)/C=C/[C@H]1[C@H](O)CC(=O)[C@@H]1CCCCCCC(=O)O` [PGE1, Prostaglandin E1] came in with an EC50 on hEP4 receptor [3] of 0.42 ± 0.72 nM. In addition, at hEP4 receptor [4], affinity was put at a Ki of 0.13 nM.
For `CCCCC[C@H](O)/C=C/[C@H]1[C@H](O)CC(=O)[C@@H]1C/C=C\CCCC(=O)O` [PGE2, prostaglandin E2], the Ki on rEP4 receptor is 0.19 nM.
With `COCc1cccc(C[C@H](O)/C=C/[C@H]2[C@H](O)CC(=O)[C@@H]2CCSCCCC(=O)O)c1` [Rivenprost (free Acid)], the Ki on rEP4 receptor (setting [8]) was determined as 0.35 nM; at hEP4 receptor [4] it was 0.37 nM. Moreover, the EC50 on hEP4 receptor [3] (setting [7]) was 0.142 nM and 0.14 nM; on Rat EP4 Receptor [5] it was 1.16 ± 0.29 nM.
`CS(=O)(=O)NC(=O)CCC/C=C\C[C@H]1C(=O)C[C@@H](O)[C@@H]1/C=C/[C@@H](O)COc1ccccc1` [Sulprostone]: the Ki on Rat EP4 Receptor [1] was 43600 nM; at hEP4 receptor [2], 3310 nM.
